Measurements as given in ChEMBL document CHEMBL4000222, “Synthetic strategy for increasing solubility of potential FLT3 inhibitor thieno[2,3-d]pyrimidine derivatives through structural modifications at the C2 and C6 positions” (Bioorg Med Chem Lett, 2017).
≈ marks a conversion by molar mass, not a printed value.

Tests used:
[1] = Stability in human liver microsomes assessed as compound remaining after 30 mins; assay type: ADME, microsome; details: read-out: Stability
[2] = Stability in rat liver microsomes assessed as compound remaining after 30 mins; assay type: ADME, microsome; details: read-out: Stability
[3] = Solubility of the compound in distilled water kept in shaker for 1 hr; assay type: physicochemical
[4] = Solubility of the compound in phosphate buffered saline kept in shaker for 1 hr; assay type: physicochemical
[5] = system: K562; experiment: cells; details: Homo sapiens
Description: Growth inhibition of FLT3 null human K562 cells by CCK8 assay

[6] = system: HL-60; experiment: cells; details: Homo sapiens
Description: Growth inhibition of human HL60 cells harboring wild-type FLT3 by CCK8 assay

[7] = molecular target: T1, Receptor-type tyrosine-protein kinase FLT3 (Homo sapiens, UniProt P36888); experiment: biochemical; assay type: cell-based
T1 sequence (P36888 whole entry): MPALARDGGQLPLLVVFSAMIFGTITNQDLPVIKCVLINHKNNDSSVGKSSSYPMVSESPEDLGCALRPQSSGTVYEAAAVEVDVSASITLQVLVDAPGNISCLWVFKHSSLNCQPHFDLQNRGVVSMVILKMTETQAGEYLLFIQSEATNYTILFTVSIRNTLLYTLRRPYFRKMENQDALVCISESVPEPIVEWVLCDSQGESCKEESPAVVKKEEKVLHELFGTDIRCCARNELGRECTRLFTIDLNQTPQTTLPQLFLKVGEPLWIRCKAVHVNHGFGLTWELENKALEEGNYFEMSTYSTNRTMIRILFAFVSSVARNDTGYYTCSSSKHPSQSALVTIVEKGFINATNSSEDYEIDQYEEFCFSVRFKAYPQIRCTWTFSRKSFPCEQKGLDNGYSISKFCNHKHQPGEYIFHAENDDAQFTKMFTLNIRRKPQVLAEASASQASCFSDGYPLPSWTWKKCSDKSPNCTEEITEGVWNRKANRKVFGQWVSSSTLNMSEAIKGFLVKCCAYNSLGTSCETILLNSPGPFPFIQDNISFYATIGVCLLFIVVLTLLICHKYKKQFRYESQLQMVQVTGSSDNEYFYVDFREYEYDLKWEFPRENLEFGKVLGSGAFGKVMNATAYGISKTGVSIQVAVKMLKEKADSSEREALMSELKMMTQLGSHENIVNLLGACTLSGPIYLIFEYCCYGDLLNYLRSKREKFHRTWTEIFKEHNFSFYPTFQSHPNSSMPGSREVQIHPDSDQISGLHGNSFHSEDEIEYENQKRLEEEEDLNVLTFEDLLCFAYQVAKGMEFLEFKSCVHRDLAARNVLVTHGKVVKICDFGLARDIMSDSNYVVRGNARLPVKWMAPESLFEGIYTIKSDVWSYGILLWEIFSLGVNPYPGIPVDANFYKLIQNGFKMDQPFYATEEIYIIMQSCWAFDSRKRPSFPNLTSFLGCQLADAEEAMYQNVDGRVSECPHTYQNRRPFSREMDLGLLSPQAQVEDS
Description: Inhibition of N-terminal GST-tagged recombinant human wild-type FLT3 (564 to end residues) expressed in baculovirus infected sf21 cells using Abltide as substrate in presence of [gamma33P]ATP after 10 mins by scintillation counting method

[8] = molecular target: Receptor-type tyrosine-protein kinase FLT3 (Homo sapiens, UniProt P36888, D835Y); experiment: biochemical; assay type: cell-based
Description: Inhibition of N-terminal GST-tagged recombinant human wild-type FLT3 (564 to end residues) D835Y mutant expressed in baculovirus infected sf21 cells using Abltide as substrate in presence of [gamma33P]ATP after 10 mins by scintillation counting method

[9] = system: MV4-11; experiment: cells; details: Homo sapiens
Description: Growth inhibition of human MV4-11 cells harboring FLT3-ITD mutant by XTT assay

[10] = system: THP-1; experiment: cells; details: Homo sapiens
Description: Growth inhibition of human THP1 cells harboring wild-type FLT3 by XTT assay

Compound	remaining at 0.5 h [1] [%]	remaining at 0.5 h [2] [%]	solubility at 1 h [3] [µM]	solubility at 1 h [4] [µM]	GI50 [5] [nM]	GI50 [6] [nM]	IC50 [7] [nM]	IC50 [8] [nM]	GI50 [9] [nM]	GI50 [10] [nM]
CC1=CC(=O)N(Nc2nc(-c3cccs3)nc3sc(C)c(C)c23)C1=O	32.4	22.7	1.28 (≈ 0.474 µg/mL)	1.04 (≈ 0.385 µg/mL)	102	> 10000				
CC1=CC(=O)N(Nc2nc(-c3cccs3)nc3sc(C)cc23)C1=O	58.8	32.6	5.84 (≈ 2.08 µg/mL)	0.36 (≈ 0.128 µg/mL)	2570	> 10000				
CNCCOc1ccc(-c2sc3nc(-c4cccs4)nc(NN4C(=O)C=C(C)C4=O)c3c2C)cc1							11.1			
CC1=CC(=O)N(Nc2nc(-c3ccc[nH]3)nc3sc(C)cc23)C1=O	40.4	39.1	10.1 (≈ 3.42 µg/mL)	0.59 (≈ 0.2 µg/mL)			135	117		
CC1=CC(=O)N(Nc2nc(-c3ccc(F)cc3)nc3sc(C)cc23)C1=O	42.6	8.58	< 0.14	< 0.14			274	266		
CC1=CC(=O)N(Nc2nc(-c3ccc[nH]3)nc3sc(C)c(C)c23)C1=O	37.1	39.7	0.87 (≈ 0.307 µg/mL)	0.16 (≈ 0.0565 µg/mL)	1100	> 10000	79.3	89.2	452	339
CC1=CC(=O)N(Nc2nc(-c3ccc(F)cc3)nc3sc(C)c(C)c23)C1=O	20.7	19.6	< 0.14	< 0.14			211	172		
CC1=CC(=O)N(Nc2nc(-c3ccco3)nc3sc(C)cc23)C1=O	35.1	34.8	40.6 (≈ 13.8 µg/mL)	28.5 (≈ 9.69 µg/mL)			171	129		
CC1=CC(=O)N(Nc2nc(-c3nccs3)nc3sc(C)cc23)C1=O	27.5	14.5	1.43 (≈ 0.511 µg/mL)	2.8 (≈ 1 µg/mL)	1280	> 10000	33.4	33.9	1350	961
CC1=CC(=O)N(Nc2nc(-c3ccco3)nc3sc(C)c(C)c23)C1=O	10.9	26.2	24.6 (≈ 8.73 µg/mL)	12.4 (≈ 4.38 µg/mL)			100	102		
CC1=CC(=O)N(Nc2nc(-c3nccs3)nc3sc(C)c(C)c23)C1=O	45.7	17.7	25.3 (≈ 9.41 µg/mL)	36.8 (≈ 13.7 µg/mL)	532	> 10000	16	21.4	216	141
